Source: patent publication US9643984B2, “Method for the preparation of [1,2,4]-triazolo[4,3-a]pyridines” (AMGEN, INC., priority 2013, dated 2017)

Assay: solid-form stability of Compound A (humidity, temperature, air)
Type: physicochemical

SMILES | stability to air, moisture and elevated temperature (isolated as salt form (e.g., HCl salt) or monohydrate form) | relative humidity at which the monohydrate crystalline solid reversibly dehydrates (monohydrate crystalline solid isolated in Example 8) | temperature up to which the monohydrate form is stable and robust (monohydrate form, solid)
COCCOc1cnc2ccn([C@H](C)c3nnc4c(F)cc(-c5cnn(C)c5)cn34)c(=O)c2c1 [Compound A, (R)-6-(1-(8-fluoro-6-(1-methyl-1H-pyrazol-4-yl)-[1,2,4]triazolo[4,3-a]pyridin-3-yl)ethyl)-3-(2-methoxyethoxy)-1,6-naphthyridin-5(6H)-one] | stable to air, moisture, and elevated temperature | < 11 % RH | 
COCCOc1cnc2ccn([C@H](C)c3nnc4c(F)cc(-c5cnn(C)c5)cn34)c(=O)c2c1 [monohydrate form of Compound A] |  |  | up to 50 °C
